In the supplement of paper PMC10307832:

Tests used:
Test in all cases: relative viability (nuclei count vs DMSO), 5 days (fraction); higher = more cells survive
[1] = compound: O=S(=O)(c1ccccc1)N(CC(F)(F)F)c1ccc(C(O)(C(F)(F)F)C(F)(F)F)cc1 + Cc1nc(Nc2ncc(C(=O)Nc3c(C)cccc3Cl)s2)cc(N2CCN(CCO)CC2)n1 [Dasatinib] (partner 0.075 µM)
Summary of the method: (§1)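 For relative viability, nuclei counts in treated wells were divided by those in vehicle wells. Lung cancer cell lines had been pin-tool dosed in 1536-well plates the day after seeding and cultured for 5 days, then fixed and stained in one step (final 0.05% Triton X-100, 1% formaldehyde, 1 ug/ml Hoechst) and imaged at 4×. Doses were one drug alone or a fixed anchor-drug dose plus five library-drug doses (not always all listed) in √10 steps, and values are duplicate-plate medians.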

RO-3306 + Decitabine = compound: C1=CC2=C(C=CC(=C2)C=C3C(=O)NC(=NCC4=CC=CS4)S3)N=C1 [RO-3306] + Nc1ncn([C@H]2C[C@H](O)[C@@H](CO)O2)c(=O)n1 [Decitabine] (partner 2 µM)
Summary of the method: as §1

[2] = compound: O=S(=O)(c1ccccc1)N(CC(F)(F)F)c1ccc(C(O)(C(F)(F)F)C(F)(F)F)cc1 + COc1cccc2cc(-c3nc([C@H]4CC[C@H](C(=O)O)CC4)n4ncnc(N)c34)[nH]c12 [OSI-027] (partner 0.5 µM)
Summary of the method: as §1

RO-3306 + AZD7762 = compound: C1=CC2=C(C=CC(=C2)C=C3C(=O)NC(=NCC4=CC=CS4)S3)N=C1 [RO-3306] + NC(=O)Nc1cc(-c2cccc(F)c2)sc1C(=O)N[C@H]1CCCNC1 [AZD7762] (partner 0.2 µM)
Summary of the method: as §1

| Cell Line | relative viability ([1]; first compound 0.8 µM) | relative viability ([1]; first compound 2.53 µM) | relative viability ([1]; first compound 8 µM) | relative viability (RO-3306 + Decitabine; first compound 0.01 µM) | relative viability (RO-3306 + Decitabine; first compound 0.03162 µM) | relative viability (RO-3306 + Decitabine; first compound 0.1 µM) | relative viability (RO-3306 + Decitabine; first compound 0.3162 µM) | relative viability (RO-3306 + Decitabine; first compound 1 µM) | relative viability ([2]; first compound 0.8 µM) | relative viability ([2]; first compound 2.53 µM) | relative viability ([2]; first compound 8 µM) | relative viability (RO-3306 + AZD7762; first compound 0.01 µM) | relative viability (RO-3306 + AZD7762; first compound 0.03162 µM) | relative viability (RO-3306 + AZD7762; first compound 0.1 µM) | relative viability (RO-3306 + AZD7762; first compound 0.3162 µM) | relative viability (RO-3306 + AZD7762; first compound 1 µM) |
| --- | --- | --- | --- | --- | --- | --- | --- | --- | --- | --- | --- | --- | --- | --- | --- | --- |
| 201T | 0.463 | 0.435 | 0.497 | 0.824 | 0.849 | 0.879 | 0.855 | 0.893 | 0.685 | 0.738 | 0.688 | 0.617 | 0.651 | 0.59 | 0.511 | 0.595 |
| A549 | – | – | – | 0.284 | – | 0.245 | 0.254 | 0.36 | – | – | – | – | – | – | – | – |
| A-427 | 0.737 | 0.653 | 0.846 | 0.615 | 0.545 | 0.543 | 0.572 | 0.568 | 0.434 | 0.479 | 0.676 | 0.821 | 0.766 | 0.685 | 0.744 | 0.832 |
| ABC-1 | 0.649 | 0.531 | 0.654 | 0.953 | 0.904 | 0.828 | 1.03 | 1.06 | 0.539 | 0.426 | 0.549 | 0.906 | 0.812 | 0.823 | 0.963 | 0.813 |
| BEN | 0.252 | 0.275 | 0.333 | 0.645 | 0.69 | 0.723 | 0.725 | 0.824 | 0.344 | 0.266 | 0.308 | 0.558 | 0.676 | 0.649 | 0.742 | 0.768 |
| CAL-12T | 0.331 | 0.216 | 0.392 | – | – | – | – | – | 0.548 | 0.554 | 0.588 | 0.718 | 0.565 | 0.575 | 0.658 | 0.747 |
| COR-L23 | 0.591 | 0.461 | 0.5 | 0.342 | 0.405 | 0.487 | 0.446 | 0.394 | 0.85 | 0.793 | 0.734 | – | – | – | – | – |
| COR-L 105 | 0.299 | 0.4 | 0.363 | 0.652 | 0.607 | 0.596 | 0.623 | 0.658 | 0.763 | 0.581 | 0.715 | – | – | – | – | – |
| ChaGo-K-1 | 0.706 | 0.648 | 0.637 | 0.514 | 0.508 | 0.521 | 0.476 | 0.363 | 0.687 | 0.522 | 0.6 | 1.08 | 0.694 | 0.84 | 0.945 | 0.769 |
| EKVX | 0.525 | 0.514 | 0.335 | 0.298 | 0.277 | 0.385 | 0.322 | 0.29 | 0.746 | 0.646 | 0.691 | 0.727 | 0.538 | 0.677 | 0.692 | 0.603 |
| EMC-BAC-2 | 0.368 | 0.325 | 0.353 | 1.1 | 0.915 | 0.963 | 0.954 | 0.972 | 0.455 | 0.422 | 0.37 | 1.1 | 1.04 | 1.14 | 1.14 | 1 |
| EPLC-272H | 0.323 | 0.398 | 0.384 | 0.367 | – | 0.335 | 0.324 | 0.355 | 0.301 | 0.304 | 0.25 | 0.152 | – | 0.138 | 0.188 | 0.199 |
| H3255 | 0.292 | 0.309 | 0.362 | 0.727 | 0.509 | 0.625 | 0.641 | 0.57 | 0.63 | 0.597 | 0.603 | 0.897 | 0.774 | 0.856 | 0.888 | 0.848 |
| HARA | 0.294 | 0.287 | 0.242 | 0.523 | – | 0.58 | 0.654 | 0.692 | 0.397 | 0.469 | 0.425 | 0.443 | – | 0.237 | 0.297 | 0.421 |
| HCC-15 | 0.616 | 0.496 | 0.539 | 0.606 | 0.547 | 0.563 | 0.662 | 0.552 | 0.799 | 0.607 | 0.623 | 1.25 | 1.08 | 1.12 | 1.21 | 1.34 |
| HCC-44 | – | – | – | 0.951 | 0.95 | 1.02 | 0.917 | 0.956 | – | 0.482 | 0.6 | 1.04 | 1.1 | 1.01 | 1 | 1.01 |
| HCC-78 | 0.374 | 0.336 | 0.919 | 0.674 | 0.597 | 0.657 | 0.661 | 0.692 | 0.342 | 0.399 | 0.469 | 0.536 | 0.498 | 0.595 | 0.682 | 0.513 |
| HCC-366 | 0.856 | 0.674 | 0.606 | 0.363 | 0.281 | 0.348 | 0.37 | 0.402 | 1.16 | 0.872 | 0.729 | 0.242 | 0.215 | 0.254 | 0.347 | 0.417 |
| HCC-827 | 0.37 | 0.36 | 0.316 | 0.339 | 0.316 | 0.345 | 0.379 | 0.289 | 0.883 | 0.858 | 0.766 | 0.234 | 0.18 | 0.216 | 0.197 | 0.196 |
| HOP-62 | 0.716 | 0.552 | 0.544 | 0.229 | 0.239 | 0.207 | 0.222 | 0.249 | 0.904 | 0.878 | 0.665 | 0.695 | 0.469 | 0.466 | 0.567 | 0.451 |
| LC-2-ad | 0.655 | 0.525 | 0.627 | 0.869 | 0.776 | 0.743 | 0.785 | 0.759 | 0.876 | 0.889 | 0.827 | 0.86 | 0.842 | 0.826 | 0.823 | 0.647 |
| LCLC-97TM1 | 0.724 | 0.734 | 0.682 | 0.203 | 0.223 | 0.196 | 0.229 | 0.266 | 0.614 | 0.527 | 0.603 | 0.258 | – | 0.197 | 0.31 | 0.26 |
